{"source": "paper PMC11328113", "about": "“Dissecting the functional behavior of the differentially phosphorylated prolyl isomerase, Pin1” (Protein Science : A Publication of the Protein Society, 2024)", "key": {"Pin1 [1]": {"target": "T1, Pin1 (Homo sapiens, UniProt Q13526)", "T1 construct": "His6 (TEV-cleavable) (N, cleaved yes); host or cells: E. coli BL21 (DE3)", "T1 sequence (Q13526 whole entry)": "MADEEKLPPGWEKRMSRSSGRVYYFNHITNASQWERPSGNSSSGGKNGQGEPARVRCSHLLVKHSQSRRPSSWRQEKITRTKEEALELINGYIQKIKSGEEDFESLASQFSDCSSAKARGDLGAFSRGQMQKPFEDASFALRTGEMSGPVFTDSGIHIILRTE", "assay": "Fluorescence polarization, FITC-Pintide binding to Pin1", "settings": "fluorescently labelled Pintide 10 nM; FP, room temperature, 5 mM HEPES pH 7.4, 30 mM NaCl, 0.1% Tween20, 1% DMSO; triplicates; read-out: apparent Kd (Pin1 titration to fluorescently labelled Pintide)", "experimental": "FP experiments were conducted using a fluorescein (FITC)‐labeled “Pintide” [5‐FITC‐(Ahx)‐WFY(pS)PFLE‐CONH2] purchased from China Peptides. FP data were collected at room temperature in buffer containing 5 mM HEPES pH 7.4, 30 mM NaCl, 0.1% v/v Tween20, and 1% v/v DMSO using Corning black, round‐bottom, low‐binding 384‐well plates. For all experiments, a fixed concentration of 10 nM fluorescently labeled Pintide and 40 μM of Pin1 protein was used. All plates were incubated for 10 min and shaken for 10 s before polarization was measured using a CLARIOstar Plus microplate reader with an excitation wavelength of 482/16 nm and an emission wavelength of 530/40 nm; dichroic mirror 504; flashes: 200. All data were analyzed using GraphPad Prism 7, and sigmoidal curves were fitted using the following Equation: Y=Bottom+Top−Bottom/1+10^Logt1/2−X*HillSlope. where Y = mP value, X = time, and Top and bottom = plateaus in mP.\nFigure S1. (a) Fluorescence polarisation data for Pin1 titration to fluorescently labelled Pintide (10 nM). The apparent Kd was 0.7 µM. […] (b) Fluorescence polarisation control data showing polarisation, mP values, for the fluorescently labelled Pintide alone (Only Pintide, black), PKA in the presence of Pintide without Pin1 at 1 min and 24 h time points, and Pin1 in the presence of Pintide without PKA at 1 min and 24 h time points. […]"}, "Pin1 [2]": {"target": "T1, Pin1", "assay": "Chymotrypsin-coupled Pin1 PPIase assay (suc-AEPF-pNA)", "format": "biochemical", "settings": "in the absence of PKA, 4°C, pH 7.8", "experimental": "To perform the FP and enzymatic activity assays, Pin1 was phosphorylated by incubation of 40 μM Pin1 with 10,000 units of cAMP‐dependent protein kinase (PKA) (New England BioLabs) in kinase buffer (50 mM Tris‐HCl, 10 mM MgCl2, 1 mM DTT, and pH 7.5) supplemented with 2 mM adenosine triphosphate (ATP) (New England BioLabs) at 37°C. At 1 min, 1 h, 3 h, 8 h, 12 h, 18 h, 24 h, and 32 h, aliquots were taken, and PKA activity was stopped by addition of 20 mM EDTA, and the samples were kept at −80°C prior to analysis.\nPin1 (phosphorylated or non‐phosphorylated, 80 nM), in buffer containing 35 mM HEPES, pH 7.8, was incubated with 30 mg/mL ice‐cold chymotrypsin (diluted in 1 mM HCl) (Sigma‐Aldrich) and 2.5 mM of PPIase substrate (Suc‐AEPF‐pNA in 460 mM LiCl in trifluoroethanol) (#SAP‐3947‐PI, Vivitide) in a 1 mL cuvette. pNA release was measured at 4°C for 1 min on a Cary 300 UV–visible spectrophotometer using an absorption wavelength at 390 nm.\nThe data were collected in triplicate and analyzed using GraphPad Prism 7. The data were reported as the mean ± standard error of the mean."}, "[3]": {"system": "cAMP-dependent protein kinase (PKA)", "assay": "LC-MS/MS (EThcD) of additional Pin1 phosphosites after PKA incubation (trypsin digestion)", "format": "biochemical", "settings": "24 h with PKA, not consistently detected across timepoints", "experimental": "Phosphorylated Pin1 was digested with either trypsin (Promega) or the endoproteinase Lys‐C (Promega) at a 1:50 ratio of enzyme: protein. To localize the phosphorylation sites, trypsin digestion was performed. To quantify the phosphosite occupancy over the phosphorylation time‐course, differentially phosphorylated Pin1 was digested with Lys‐C. For both enzymatic reactions, Pin1 was digested in 100 mM ammonium bicarbonate pH 8.0 for 3 h at 37°C, and the reaction was quenched by the addition of formic acid (2% v/v final concentration). All peptides were separated using an UltiMate 3000 HPLC series, which was either coupled to a QExactive HF or Orbitrap Eclipse mass spectrometer (Thermo Fisher Scientific). Peptides were desalted on a PepMap100 C18 nanoViper trap column (75 μM x 2 cm, […] particle size) (Thermo Fisher Scientific) and separated with a PepMap100 C18 nanoViper analytical column (75 μM x 15 cm, […] particle size) (Thermo Fisher Scientific) using mobile phase A (H2O and 0.1% formic acid) and mobile phase B (100% acetonitrile and 0.1% formic acid) and eluted using a gradient from […] to 44% B over 30 min. The column flow rate was set to 350 nL/min with the column temperature set at 40°C. To quantify the extent of phosphorylation on Pin1, MS/MS was performed on the QExactive HF mass spectrometer. […]\nTo prevent phospho‐loss resulting in misassignment of the phosphosite location (Boersema et al., [2009]), electron transfer dissociation with supplemental HCD (EThcD) was performed on the trypsin‐digested peptides to localize the phosphosites. […] ETD was performed using an automatically determined reagent time set based on precursor charge state. […] Fragment ions were detected in the Orbitrap using a resolution setting of 30,000. […]\nAll RAW files were processed and analyzed using Proteome Discoverer version 2.5. […] Additional phosphosites, Ser58, Ser65, and Ser67 (Table S4) were detected after 24 h of incubation with PKA, however, these were not consistently detected across all timepoints and, therefore, were excluded from phosphosite quantitation. […]"}, "[4]": {"system": "cAMP-dependent protein kinase (PKA)", "assay": "LC-MS/MS phosphosite occupancy of Pin1 upon incubation with PKA (Lys-C digestion)", "format": "biochemical", "settings": "triplicate", "experimental": "(§1) To phosphorylate Pin1 for the native MS analysis, Pin1 (10 μM) was incubated at 30°C with 2 mM ATP, 10 mM MgCl2 (BDH Laboratory supplies), and 10,000 units PKA in 100 mM ammonium acetate pH 6.8 for 1, 3, 8, and 24 h. The concentration of PKA and Pin1 was optimized in order to detect sequential phosphorylation within the time course. At each time‐point, aliquots were taken, the reaction quenched by addition of EDTA (final concentration 20 mM), and the sample buffer exchanged using 3 kDa Amicon Ultra 0.5 mL centrifugal concentrators into 100 mM ammonium acetate pH 6.8 prior to MS analysis. Phosphorylation assays at each time‐point were carried out in triplicates, and the error was reported as the standard deviation.\nPhosphorylated Pin1 was digested with either trypsin (Promega) or the endoproteinase Lys‐C (Promega) at a 1:50 ratio of enzyme: protein. To localize the phosphorylation sites, trypsin digestion was performed. To quantify the phosphosite occupancy over the phosphorylation time‐course, differentially phosphorylated Pin1 was digested with Lys‐C. For both enzymatic reactions, Pin1 was digested in 100 mM ammonium bicarbonate pH 8.0 for 3 h at 37°C, and the reaction was quenched by the addition of formic acid (2% v/v final concentration). All peptides were separated using an UltiMate 3000 HPLC series, which was either coupled to a QExactive HF or Orbitrap Eclipse mass spectrometer (Thermo Fisher Scientific). […] To quantify the extent of phosphorylation on Pin1, MS/MS was performed on the QExactive HF mass spectrometer. […]\nTo quantify the abundance of phosphorylated peptides, the retention time of the eluted peptides was identified using Proteomic Discoverer v.2.5. Spectra were averaged across the peptides chromatographic peak, and the percentage of phosphorylated peptide was calculated as a percentage of the total abundance of unphosphorylated and phosphorylated peptide. Full details of the peptides used for quantitation are detailed in the Supporting Information (Table S4)."}, "[5]": {"system": "cAMP-dependent protein kinase (PKA)", "assay": "Native MS of Pin1 phosphorylation by PKA", "format": "biochemical", "settings": "30°C, pH 6.8, mean ± SD, triplicate", "experimental": "as §1\n(§2) All native MS was performed on a QExactive HF mass spectrometer (Thermo Fisher Scientific) equipped with a nanoelectrospray ionization source that used gold‐coated borosilicate glass capillaries, pulled in‐house. Positive ionization mode was used throughout, with the capillary voltage set to 1.2 kV. The source temperature was set at 250°C, in source dissociation at 0, S‐lens RF at 100. The Pin1 concentration was set to 2.5 μM and a mass range of 1500–4000 m/z was acquired. Mass spectra were acquired using a maximum ion injection time of 100 ms. The automatic gain control was set to 1 x 10^6 and the ions detected in the orbitrap with resolution set to 15,000. All data were analyzed using XCalibur (version 4.2). To quantify the abundance of unphosphorylated, phosphorylated Pin1 and Pin1‐Pintide complexes, the relative abundance of the peaks corresponding to the specific 9+, 8+, and 7+ Pin1 species of interest was summed and expressed as a percentage of all Pin1‐containing peaks detected."}, "Pin1 [6]": {"target": "T1, Pin1", "assay": "Native MS of Pintide bound to differentially phosphorylated Pin1", "format": "binding", "settings": "for % Pintide bound: 2.5 μM : 25 μM Pin1 : Pintide, 100 mM ammonium acetate, mean ± SD, triplicate", "experimental": "as §1\nUnlabeled Pintide [AcHN‐WFY(pS)PFLE‐CONH2] was purchased from China Peptides and dissolved in 100 mM ammonium acetate pH 8 to a final concentration of 1 mg/mL and stored at −80°C until use. To determine the affinity of […] for differentially phosphorylated Pin1, Pintide was added to each Pin1 phosphorylation time‐point at a 2.5 μM: 25 μM Pin1 to Pintide ratio and the sample was directly infused into the mass spectrometer. Experiments were carried out in triplicates, and the error was reported as the standard deviation.\nas §2"}, "[7]": {"target": "Pin1 phosphorylated at Ser71 (singly phosphorylated Pin1) (UniProt Q13526)", "sequence (Q13526 whole entry)": "as above", "assay": "fluorescence polarisation; time course: Pin1 (40 uM) incubated with PKA and ATP at 37 C for 1 min to 32 h, stopped with 20 mM EDTA, then 10 nM FITC-Pintide; room temperature, 5 mM HEPES pH 7.4, 30 mM NaCl, 0.1% Tween20, 1% DMSO; control without PKA"}}, "note": "Where a SMILES comes first, the peptide text is derived from it. Where no end group is shown, it is not given here. [ ]: non-standard residue; d: D form. The star is where a group is joined. FITC = O=C1OC2(c3ccc(O)cc3Oc3cc(O)ccc32)c2ccc(NC(=S)*)cc21; pS = N[C@@H](COP(=O)(O)O)C(=O)O; Ahx = NCCCCCC(=O)O"}
{"molecule": "CC(C)C[C@H](NC(=O)[C@H](Cc1ccccc1)NC(=O)[C@@H]1CCCN1C(=O)[C@H](COP(=O)(O)O)NC(=O)[C@H](Cc1ccc(O)cc1)NC(=O)[C@H](Cc1ccccc1)NC(=O)[C@H](Cc1c[nH]c2ccccc12)NC(=O)CCCCCNC(=S)Nc1ccc2c(c1)C(=O)OC21c2ccc(O)cc2Oc2cc(O)ccc21)C(=O)N[C@@H](CCC(=O)O)C(N)=O", "note": "[FITC‐Pintide, 5‐FITC‐(Ahx)‐WFY(pS)PFLE‐CONH2] ({FITC-Ahx}-WFY[pS]PFLE-NH2)", "values": [{"measurement": "Kd", "setting": "Pin1 [1]", "result": 0.7, "unit": "µM"}]}
{"molecule": "Pin1: peptidyl‐prolyl cis‐trans isomerase comprising N-terminal WW domain and C-terminal PPIase domain", "values": [{"measurement": "absorption at 390 nm upon addition of Pin1 to the substrate (catalytic activity)", "setting": "Pin1 [2]", "result": "increased"}, {"measurement": "Phosphorylation Stoichiometry (24h), Ser58", "setting": "[3]", "result": 0.19}, {"measurement": "Phosphorylation Stoichiometry (24h), Ser65", "setting": "[3]", "result": 0.05}, {"measurement": "Phosphorylation Stoichiometry (24h), Ser67", "setting": "[3]", "result": 0.05}, {"measurement": "phosphorylation occupancy of Ser16", "setting": "[4]; 1 h incubation with PKA", "result": 4, "unit": "%"}, {"measurement": "phosphorylation occupancy of Ser71", "setting": "[4]; 1 h incubation with PKA", "result": "~ 90%"}, {"measurement": "phosphorylation occupancy of Ser16", "setting": "[4]; 24 h incubation with PKA", "result": "~ 80%"}, {"measurement": "relative abundance of doubly phosphorylated Pin1", "setting": "[5]; 3 h incubation with PKA", "result": "~ 65 ± 23%"}, {"measurement": "relative abundance of doubly phosphorylated Pin1", "setting": "[5]; 8 h incubation with PKA", "result": "85% ± 11"}, {"measurement": "relative abundance of Pin1 with two phosphorylation sites", "setting": "[5]; 24 h incubation with PKA", "result": "95% ± 0.01"}]}
{"molecule": "AcHN‐WFY(pS)PFLE‐CONH2 [Pintide]", "values": [{"measurement": "% Pintide bound", "setting": "Pin1 [6]; 0 phosphosites on Pin1", "result": "39 ± 5", "unit": "%"}, {"measurement": "% Pintide bound", "setting": "Pin1 [6]; 1 phosphosite on Pin1, * p <0.05 (ANOVA, Tukey HSD)", "result": "26 ± 6* %"}, {"measurement": "% Pintide bound", "setting": "Pin1 [6]; 2 phosphosites on Pin1, ** p <0.01 (ANOVA, Tukey HSD)", "result": "4 ± 1** %"}, {"measurement": "Pin1 binding to Pintide", "setting": "Pin1 [6]; Pin1 phosphorylated at Ser71, versus unphosphorylated, native MS", "result": "small, yet significant, difference"}]}
{"molecule": "WFY[pS]PFLE-NH2 (not fully specified (N-terminus); printed as 5‐FITC‐(Ahx)‐WFY(pS)PFLE‐CONH_2_)", "note": "[FITC-Pintide [5-FITC-(Ahx)-WFY(pS)PFLE-CONH2]]", "values": [{"measurement": "% of binding inhibited after 1 h with PKA", "setting": "[7]", "result": 16, "unit": "%"}]}
